What was measured:
[1] = system: aging-related isoform (arNOX); settings: previous findings described in the background; cited from earlier work
age-related NOX (arNOX) = assay: NOX assay with human mammary epithelial (non-cancer) MCF-10A cells: arNOX; type: cell-based; settings: 100 μM AgO added in 1.7% phosphoric acid; late passage MCF-10A cells
Method: (§1) FIG. 6 is as for FIG. 5 except that the assay was with 10^6 human mammary epithelial (non-cancer) MCF-10A cells. These cells lacked tNOX as their surface and contained predominantly a constitutive CNOX (single arrows) which was not inhibited by the 100 μM AgO added in 1.7% phosphoric acid. The MCF-10A cells were late passage cells and contained, as well, an age-related NOX (arNOX) with a period length of 26 minutes. This activity was inhibited by the AgO as shown in Panel B.
(§2) Growth of cells. Cells were grown in culture in a humidified atmosphere of 5% CO2 in air at 37° C. Media were renewed every 2 to 3 days. HeLa (ATCC CCL2) cells were grown in 175-cm^2 flasks in Minimal Essential Medium (Gibco), pH 7.4 at 37° with 10% fetal bovine serum (heat-inactivated), plus 50 mg/L gentamycin sulfate (Sigma). Cells were harvested by scraping and taken up in 140 mM NaCl, 5 mM KCl, 0.7 mM Na2HPO4 and 25 mM Tris, pH 7.4, to a final cell concentration of 0.1 g wet weight (gww) per mL. […]
(§3) Spectrophotometric assay of NADH Oxidase. NAD(P)H oxidase activities were measured using paired Hitachi U3210 spectrophotometers over successive 5-minutes intervals (two to four or more at low inhibitory concentrations) at 37° C. The activity was determined as the disappearance of NAD(P)H measured at 340 nm. […]

tNOX [2] = target: T1, tNOX (Homo sapiens, UniProt Q16206); assay: NOX assay with human mammary adenocarcinoma (BT-20) cells: tNOX; type: cell-based; design: endogenous in cells; settings: 100 μM AgO; 2×10^6 BT-20 cells
T1 sequence (Q16206 1-610): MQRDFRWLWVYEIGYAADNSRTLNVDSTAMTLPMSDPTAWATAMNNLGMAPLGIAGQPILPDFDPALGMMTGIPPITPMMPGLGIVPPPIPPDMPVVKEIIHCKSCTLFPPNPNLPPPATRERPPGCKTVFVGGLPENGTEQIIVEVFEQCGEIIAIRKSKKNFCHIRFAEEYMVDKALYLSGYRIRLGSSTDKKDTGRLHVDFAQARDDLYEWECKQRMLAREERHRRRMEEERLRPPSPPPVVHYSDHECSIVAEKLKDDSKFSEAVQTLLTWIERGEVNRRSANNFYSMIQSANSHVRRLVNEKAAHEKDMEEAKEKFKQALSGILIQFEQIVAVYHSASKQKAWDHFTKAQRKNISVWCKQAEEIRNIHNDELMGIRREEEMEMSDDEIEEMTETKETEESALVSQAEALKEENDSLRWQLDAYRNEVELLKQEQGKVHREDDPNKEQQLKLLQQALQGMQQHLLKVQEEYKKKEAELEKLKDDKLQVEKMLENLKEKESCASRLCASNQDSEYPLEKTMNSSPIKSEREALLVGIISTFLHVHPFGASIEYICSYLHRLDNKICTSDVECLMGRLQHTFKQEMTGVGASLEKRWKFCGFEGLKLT
Method: (§4) FIG. 5 presents results from an assay using 2×10^6 human mammary adenocarcinoma (BT-20) cells carried out as described for FIG. 2. Panel A (no addition) received only the phosphoric acid (0.0017%).
as §2, with “mL. MCF-10A human mammary epithelial cells were cultured in a 1:1 mixture of Ham's F12 medium and Dulbecco's Modified Eagle's medium containing glutamine […], hydrocortisone (0.5 μg/mL), EGF (20 ng/mL), and 5% horse serum. Medium was renewed every 2-3 days.” for “mL.”
as §3

constitutive CNOX [3] = target: T2, constitutive CNOX (Homo sapiens, UniProt Q8TC92); assay: NOX (NADH oxidase) assay of solubilized ECTO-NOX activities released from the surface of HeLa cells: CNOX; type: biochemical; design: solubilized ECTO-NOX activities released from the surface of HeLa cells by treatment at pH 5; endogenous in cells; host or cells: HeLa S cells, cell-free pH 5 extract
T2 sequence (Q8TC92 1-643): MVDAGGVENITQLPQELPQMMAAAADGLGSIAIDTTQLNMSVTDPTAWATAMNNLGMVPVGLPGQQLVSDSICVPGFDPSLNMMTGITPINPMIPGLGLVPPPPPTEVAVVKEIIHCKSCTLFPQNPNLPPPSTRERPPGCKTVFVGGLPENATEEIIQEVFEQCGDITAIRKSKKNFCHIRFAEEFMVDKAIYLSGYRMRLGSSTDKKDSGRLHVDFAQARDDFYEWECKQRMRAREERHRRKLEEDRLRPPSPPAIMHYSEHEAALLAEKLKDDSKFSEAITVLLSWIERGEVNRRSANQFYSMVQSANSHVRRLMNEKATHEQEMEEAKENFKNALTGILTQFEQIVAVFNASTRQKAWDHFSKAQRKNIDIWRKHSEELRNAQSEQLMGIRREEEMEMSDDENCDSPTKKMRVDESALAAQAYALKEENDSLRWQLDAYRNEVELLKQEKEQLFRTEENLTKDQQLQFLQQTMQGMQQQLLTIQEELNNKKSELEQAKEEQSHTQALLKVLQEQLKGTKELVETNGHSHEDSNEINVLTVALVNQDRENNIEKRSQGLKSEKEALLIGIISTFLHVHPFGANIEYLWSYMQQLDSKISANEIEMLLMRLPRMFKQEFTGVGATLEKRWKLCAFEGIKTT
Method: (§5) FIG. 2 is similar to FIG. 1 except that a preparation of solubilized ECTO-NOX activities released from the surface of HeLa cells by treatment at pH 5 (del Castillo-Olivares et al., Arch. Biochem. Biophys. 358: 125-140, 1998) was used as the enzyme source. The AgO was dissolved in DMSO added at a final concentration of AgO of 1 mM. The final concentration of DMSO added in both A and B after 45 minutes was 0.1%. The assays were then continued for and additional 45 minutes. The HeLa extracts contain both the constitutive CNOX (single arrows denoting a 24 minutes period length) and two activity maxima separated by 6 minutes and labeled (1) and (2) which are tNOX (double arrows). With addition of AgO, both tNOX activities are inhibited while the constitutive CNOX remain unaffected. Values are based on three experiments and report means±standard deviations to establish statistical reliability of the data.
FIG. 3 represents the response of total NOX (NADH oxidase) activity of the preparation of FIG. 2 as a function of the logarithm of AgO concentration. […]
as §3

constitutive CNOX [4] = target: T2, constitutive CNOX; assay: NOX assay with human mammary epithelial (non-cancer) MCF-10A cells: CNOX; type: cell-based; design: solubilized ECTO-NOX activities released from the surface of HeLa cells by treatment at pH 5; endogenous in cells; host or cells: HeLa S cells, cell-free pH 5 extract; settings: 100 μM AgO added in 1.7% phosphoric acid; 10^6 MCF-10A cells
Method: as §1, §2, §3

constitutive CNOX [5] = assay: NOX assay with solubilized soybean plasma membranes; type: biochemical, soybean (Glycine max); settings: plasma membranes solubilized in 0.1% Triton X-100 overnight
Method: FIG. 7 is similar to FIG. 6 except that plasma membranes isolated from etiolated hypocotyls (stems) of soybean (Glycine max) were the enzyme source. The plasma membranes were solubilized in 0.1% Triton X-100 overnight prior to assay. The soybean plasma membranes contain only a constitutive CNOX which is unresponsive to AgO.
(§6) Spectrophotometric assay of NADH Oxidase. NAD(P)H oxidase activities were measured using paired Hitachi U3210 spectrophotometers over successive 5-minutes intervals (two to four or more at low inhibitory concentrations) at 37° C. The activity was determined as the disappearance of NAD(P)H measured at 340 nm. The reaction mixture included sample, 50 mM Tris-MES, pH 7.0, 2 mM KCN, and 150 μM NAD(P)H in a total volume of 2.5 ml at 37° C. with stirring. A millimolar extinction coefficient of 6.22 was used to determine NAD(P)H disappearance.

[6] = target: T3, recombinant form of tNOX (nus tNOX) (Homo sapiens, UniProt Q16206); assay: standard NOX assay (oxidation of NADH, decrease in A340) with recombinant tNOX; type: biochemical; settings: 100 μM AgO in 1.7% phosphoric acid added after 45 minutes; 25° C
T3 construct: nus tag
T3 sequence (Q16206 1-610): T1 sequence (Q16206 1-610)
Method: In panel A, an equivalent amount of phosphoric acid was added. The assay measured oxidation of NADH (decrease in A340) in a standard NOX assay at 25° C.
as §6

constitutive CNOX [7] = target: T2, constitutive CNOX; assay: NOX assay with human mammary adenocarcinoma (BT-20) cells: CNOX; type: cell-based; design: endogenous in cells; settings: 100 μM AgO; 2×10^6 BT-20 cells
Method: as §4
as §2, with “mL. MCF-10A human mammary epithelial cells were cultured in a 1:1 mixture of Ham's F12 medium and Dulbecco's Modified Eagle's medium containing glutamine […], hydrocortisone (0.5 μg/mL), EGF (20 ng/mL), and 5% horse serum. Medium was renewed every 2-3 days.” for “mL.”
as §3

tNOX [8] = target: T1, tNOX; assay: NOX (NADH oxidase) assay of solubilized ECTO-NOX activities released from the surface of HeLa cells: tNOX; type: biochemical; design: solubilized ECTO-NOX activities released from the surface of HeLa cells by treatment at pH 5; endogenous in cells; host or cells: HeLa S cells, cell-free pH 5 extract
Method: as §5
FIG. 3 represents the response of total NOX (NADH oxidase) activity of the preparation of FIG. 2 as a function of the logarithm of AgO concentration. The AgO was dissolved in 1.7% phosphoric acid and the dilutions were prepared in water. […] The EC50 of tNOX inhibition was estimated to be about 5 μM.
as §6
Preparation of HeLa Cells and Cell-Free Extracts. HeLa S cells were collected by centrifugation and shipped frozen in 0.1 M sodium acetate, pH 5, in a ratio of 1 mL of packed cell volume to 1 mL of acetate (Cellex Biosciences). The cells were thawed at room temperature, resuspended, and incutated at 37° for 1 hr to release the protein. […]

[9] = AgO dissolved in DMSO, final concentration 1 mM, added after 45 minutes

Row | SMILES | effect on generation of superoxide by arNOX [1] | inhibition of age-related NOX (arNOX) activity (age-related NOX (arNOX)) | inhibition of the two activity maxima associated with tNOX (tNOX [2]) | inhibition of constitutive CNOX (constitutive CNOX [3]; AgO concentration series in 1.7% phosphoric acid/water) | effect on constitutive CNOX activity (constitutive CNOX [3]; [9]) | inhibition of constitutive CNOX (constitutive CNOX [4]) | response of constitutive CNOX to AgO (constitutive CNOX [5]) | inhibition of recombinant tNOX NADH oxidase activity [6] | effect on constitutive CNOX (constitutive CNOX [7]) | inhibition of tNOX (tNOX [8]; AgO concentration of 100 μM (10^−4M)) | EC50 (tNOX [8]; AgO dissolved in 1.7% phosphoric acid, dilutions in water, estimated from total NOX activity, read-out: EC50 of tNOX inhibition) | inhibition of tNOX activities (tNOX [8]; [9])
1 | COC1=C(OC)C(=O)C(C/C=C(\C)CC/C=C(\C)CC/C=C(\C)CC/C=C(\C)CC/C=C(\C)CC/C=C(\C)CC/C=C(\C)CC/C=C(\C)CC/C=C(\C)CCC=C(C)C)=C(C)C1=O [coenzyme Q] | inhibition |  |  |  |  |  |  |  |  |  |  | 
2 | [O]=[Ag] [AgO, silver (II) oxide] |  | inhibited | inhibited | not inhibited | unaffected | not inhibited | unresponsive | inhibited completely | without effect | completely inhibited | ~5 µM | inhibited
